We go through 18 compounds from PMC8234143, “Synthesis and Antiviral Evaluation of Nucleoside Analogues Bearing One Pyrimidine Moiety and Two D-Ribofuranosyl Residues” (Molecules, 2021).

Like-named read-outs stand apart in the source and are kept apart here. Where only a bound is given, the exact number is not on record here.

For one data set, the system named is WI-38. The data set can be described thus: Cytotoxicity assay (Cytell Cell Imaging, DAPI/propidium iodide). It counts as cell-based. Particulars: cytotoxic activity, normal human lung fibroblasts, read-out: IC50 Normal Cell Line WI-38.
In the next data set the test system is HuTu-80. The description is as above. It counts as cell-based. Particulars: Homo sapiens, HuTu80; cytotoxic activity, duodenal adenocarcinoma; read-out: IC50 Cancer Cell Lines HuTu-80.
For the next data set, the system named is PC-3. The data set is described as above. The following applies: cytotoxic activity, human prostate adenocarcinoma, read-out: IC50 Cancer Cell Lines PC-3. It counts as cell-based.
For the next data set, the system named is M-HeLa. The description is as above. Particulars: cytotoxic activity, human cervix epitheloid carcinoma, read-out: IC50 Cancer Cell Lines M-HeLa. It counts as cell-based.
Data set [1] is described as follows: in vitro. Particulars: African green monkey, CC50, Vero cells, MTT; concentration causing 50% cell death.
Data set [2] can be described thus: in vitro. Particulars: dog.
Data set [3] relates to Vero cells. The following applies: for CC50: Vero cells, MTT, concentration causing 50% cell death.
The test system of data set [4] is A/Puerto Rico/8/34 (H1N1) influenza virus. The data set can be described thus: Antiviral (cytoprotection, MTT) assay against influenza virus in MDCK cells. It counts as cell-based. The following applies: for SI: CC50/IC50 ratio, influenza H1N1 / MDCK; for IC50: 48 h.
The subject of data set [5] is Coxsackie B3 virus. The data set can be described thus: Antiviral (cytoprotection, MTT) assay against Coxsackie B3 virus in Vero cells. The following applies: for IC50: 50% inhibition of virus replication, Vero cells, 48 h; for SI: CC50/IC50 ratio, Coxsackie B3 / Vero. It counts as cell-based, coxsackievirus B3.
Data set [6] concerns Coxsackie B3 virus. More on the design: method as in PMID 32930935. Particulars: cited from earlier work; for IC50: 50% inhibition of virus replication, Vero cells; for SI: CC50/IC50 ratio, Coxsackie B3 / Vero.
Data set [7] relates to Vero cells. The following applies: cited from earlier work.
Data set [8] deals with A/Puerto Rico/8/34 (H1N1) influenza virus. Also on record: method as in PMID 32930935. The following applies: cited from earlier work; for IC50: 50% inhibition of virus replication, MDCK cells, earlier published compounds; for SI: CC50/IC50 ratio, influenza H1N1 / MDCK; for antiviral activity against influenza virus A H1N1 (in words): monosubstituted analogues.
A further data set deals with MDCK cells. The following applies: earlier published compounds; cited from earlier work.
Where [9] appears, read: Influenza A virus, H1N1, MDCK, 50% inhibition of virus replication, MDCK cells, read-out: IC50.
Setting [10] is: 50% inhibition of virus replication, MDCK cells, read-out: IC50.

Regarding `O=c1[nH]cc(F)c(=O)[nH]1` [5-Fluorouracil, reference compound], the IC50 in the data set on WI-38 came out at 82.5 ± 6.6 µM; in the data set on HuTu-80 it was 65.2 ± 5.5 µM; with PC-3, 10.3 ± 0.8 µM; with M-HeLa, 62 ± 4.9 µM.
As for `CC(=O)OCC1OC(n2cc(CCCCn3c(C)cc(=O)n(CCCCc4cn(C5OC(COC(C)=O)C(OC(C)=O)C5OC(C)=O)nn4)c3=O)nn2)C(OC(C)=O)C1OC(C)=O` (stereo not shown) [Compound 2f], the CC50 in the data set “in vitro [1]” is 18 µM; in the data set “in vitro [2]”, > 338 µM; with Vero cells [3] it was 17.7 ± 0.6 µM. The IC50 with WI-38 was > 100 µM; with HuTu-80, > 100 µM; with PC-3, > 100 µM; in data set [4] (Influenza A virus, H1N1, MDCK), 96.3 ± 12.4 µM; in the data set on Coxsackie B3 virus [5], > 12.4 µM; with Coxsackie B3 virus [5] (Enterovirus B, B3, Vero), 12.4 µM. Besides, the IC50 in the data set on M-HeLa was 88.1 ± 7.4 µM. The SI in data set [4] was 4; with Coxsackie B3 virus [5] it was 1. In addition, in data set [4] (MDCK cells), the “antiviral activity against influenza virus A H1N1 (in words)” value (“antiviral activity” below) was “inactive”.
In the case of `Cc1cc(=O)n(CCCCc2cn(C3OC(CO)C(O)C3O)nn2)c(=O)n1CCCCc1cn(C2OC(CO)C(O)C2O)nn1` (stereo not shown) [Compound 2i], the CC50 in “in vitro [1]” and in the data set “in vitro [2]” was > 471 µM in each case. The IC50 with WI-38 is > 100 µM; in the data set with HuTu-80 it was > 100 µM; in the data set on PC-3 it was > 100 µM; in data set [4] (setting [9]), 57.5 ± 7.1 µM; in the data set with Coxsackie B3 virus [5] (Enterovirus B, B3, Vero), > 471 µM; in the data set with M-HeLa, 100 ± 8.5 µM. Also, the “cytotoxicity against the Vero cell line (in words)” value in the data set with Vero cells [3] was “not cytotoxic”. In addition, the values for the SI (in data set [4]; with Coxsackie B3 virus [5]) were 8 and 1, respectively.
As to `Cc1cc(=O)[nH]c(=O)n1Cc1cn([C@@H]2O[C@H](CO)[C@@H](O)[C@H]2O)nn1` [Compound 2j], in the data set on Coxsackie B3 virus [6], the IC50 was > 1180 µM and the SI is 1 ^4. In the data set on Vero cells [7], the CC50 was > 1180 µM. Moreover, in data set [8], the IC50 was > 885 µM, the SI is recorded as 1 and the “antiviral activity” value is “did not demonstrate antiviral activity”. Further, the CC50 in the data set with MDCK cells is > 885 µM.
Consider `Cc1cc(=O)[nH]c(=O)n1CCCc1cn([C@@H]2O[C@H](CO)[C@@H](O)[C@H]2O)nn1` [Compound 2k], for which, in the data set on Coxsackie B3 virus [6], the IC50 was > 1090 µM and the SI is recorded as 1 ^4,3. Moreover, in the data set on Vero cells [7], the CC50 was > 1090 µM. Also, in data set [8], the IC50 is 43 ± 5 µM and the SI is on record as 6 ^4.
For the compound `O=c1c2ccccc2n(CCCCc2cn(C3OC(CO)C(O)C3O)nn2)c(=O)n1CCCCc1cn(C2OC(CO)C(O)C2O)nn1` (stereo not shown) [Compound 4i], the CC50 in “in vitro [1]” and in “in vitro [2]” was > 446 µM in each case. The half-inhibitory concentration (IC50) was 297 ± 32.4 µM in data set [4] (setting [10]); 297 µM in data set [4] (setting [9]); > 446 µM with Coxsackie B3 virus [5] (Enterovirus B, B3, Vero). For the same compound, the SI came out at 2 in [4] and 1 in the data set on Coxsackie B3 virus [5].
Regarding `O=c1[nH]c(=O)n(CCCc2cn([C@@H]3O[C@H](CO)[C@@H](O)[C@H]3O)nn2)c2ccccc12` [Compound 4k], in the data set with Coxsackie B3 virus [6], the IC50 is > 82 µM and the SI is on record as 1 ^4,3. In addition, the CC50 in the data set with Vero cells [7] is 101 ± 8 µM. For the same compound, in data set [8], the IC50 is 212 ± 25 µM, the SI is 4 ^4 and the “antiviral activity” value is “did not demonstrate antiviral activity”. In the data set with MDCK cells, the CC50 is > 744 µM.
For `O=c1[nH]c(=O)n(CCCCc2cn([C@@H]3O[C@H](CO)[C@@H](O)[C@H]3O)nn2)c2ccccc12` [Compound 4m], in the data set on Coxsackie B3 virus [6], the IC50 is > 79 µM and the SI is listed as 1 ^4,3. Also, in data set [8], the IC50 is 30 ± 4 µM and the SI was 24. Further, the CC50 with MDCK cells is > 719 µM.
As to `CC(=O)OCC1OC(n2cc(CCCCn3c(=O)c4nc5ccccc5nc4n(CCCCc4cn(C5OC(COC(C)=O)C(OC(C)=O)C5OC(C)=O)nn4)c3=O)nn2)C(OC(C)=O)C1OC(C)=O` (stereo not shown) [Compound 5f], the CC50 in the data set “in vitro [1]” is 18 µM; in the data set “in vitro [2]” it was > 308 µM; in the data set on Vero cells [3], 17.8 ± 1.1 µM. Also, the IC50 is > 100 µM with WI-38; > 100 µM with HuTu-80; 66.8 ± 5.3 µM in the data set with PC-3; 91.6 ± 10.8 µM in data set [4] (setting [9]); > 11.3 µM with Coxsackie B3 virus [5]; 11.3 µM with Coxsackie B3 virus [5] (Enterovirus B, B3, Vero). For the same compound, in the data set on M-HeLa, the IC50 came to 71.4 ± 6.3 µM. Moreover, the SI in data set [4] is 3; with Coxsackie B3 virus [5], 2. For the same compound, the “antiviral activity” value in data set [4] (MDCK cells) is “inactive”.
On to `O=c1c2nc3ccccc3nc2n(Cc2cn(C3OC(CO)C(O)C3O)nn2)c(=O)n1Cc1cn(C2OC(CO)C(O)C2O)nn1` (stereo not shown) [Compound 5g], for which the CC50 in the data set “in vitro [1]” and in the data set “in vitro [2]” was > 468 µM throughout. The IC50 is 187 ± 20.8 µM in data set [4] (setting [10]); > 100 µM in data set [4] (setting [9]); > 468 µM with Coxsackie B3 virus [5] (Enterovirus B, B3, Vero). The SI in data set [4] is 3; with Coxsackie B3 virus [5], 1.
`O=c1c2nc3ccccc3nc2n(CCCc2cn(C3OC(CO)C(O)C3O)nn2)c(=O)n1CCCc1cn(C2OC(CO)C(O)C2O)nn1` (stereo not shown) [Compound 5h]: the CC50 in “in vitro [1]” and in “in vitro [2]” was > 431 µM throughout. The IC50 in [4] (setting [10]) was 115 ± 15.2 µM; in [4] (setting [9]), > 100 µM; in the data set on Coxsackie B3 virus [5] (Enterovirus B, B3, Vero), > 431 µM. For the same compound, the figures for the SI (in data set [4]; with Coxsackie B3 virus [5]) were 4 and 1, respectively.
In the case of `O=c1c2nc3ccccc3nc2n(CCCCc2cn(C3OC(CO)C(O)C3O)nn2)c(=O)n1CCCCc1cn(C2OC(CO)C(O)C2O)nn1` (stereo not shown) [Compound 5i], the CC50 in the data set “in vitro [1]” and in “in vitro [2]” was > 414 µM throughout. The IC50 is > 100 µM with WI-38; > 100 µM with HuTu-80; > 100 µM in the data set on PC-3; 24.3 ± 3.2 µM in [4] (setting [9]); > 414 µM with Coxsackie B3 virus [5] (Enterovirus B, B3, Vero); 71 ± 6.1 µM in the data set with M-HeLa. The “cytotoxicity against the Vero cell line (in words)” value in the data set on Vero cells [3] is given as “not cytotoxic”. Besides, the SI in [4] is recorded as 17; with Coxsackie B3 virus [5], 1.
As to `Cc1[nH]c(=O)n(CCCc2cn(C3OC(CO)C(O)C3O)nn2)c(=O)c1CCCc1cn(C2OC(CO)C(O)C2O)nn1` (stereo not shown) [Compound 11e], the results for the CC50 in the data set “in vitro [1]” and in the data set “in vitro [2]” were 394 ± 21.1 µM and > 493 µM, respectively. Also, the values for the SI (in data set [4]; with Coxsackie B3 virus [5]) were 3 and 2, respectively. The IC50 is 164 ± 19.2 µM in data set [4] (setting [9]) and > 164 µM in the data set on Coxsackie B3 virus [5] (Enterovirus B, B3, Vero). In [4] (MDCK cells), the “antiviral activity” value is “completely inactive”.
In the case of `Cc1[nH]c(=O)n(CCCCc2cn(C3OC(CO)C(O)C3O)nn2)c(=O)c1CCCCc1cn(C2OC(CO)C(O)C2O)nn1` (stereo not shown) [Compound 11f], the CC50 in “in vitro [1]” and in the data set “in vitro [2]” was > 471 µM throughout. Moreover, the SI (in data set [4]; with Coxsackie B3 virus [5]) was 1 throughout. Further, the IC50 in data set [4] (Influenza A virus, H1N1, MDCK) is > 471 µM; with Coxsackie B3 virus [5] (Enterovirus B, B3, Vero) it was > 471 µM. Besides, the “antiviral activity” value in [4] (MDCK cells) was “did not demonstrate antiviral activity”.
With `Cc1[nH]c(=O)[nH]c(=O)c1CCCc1cn([C@@H]2O[C@H](CO)[C@@H](O)[C@H]2O)nn1` [Compound 11g], the figures for the SI (with Coxsackie B3 virus [6]; in [8]) were 4 ^4 and 2 ^4, respectively. In addition, the CC50 was 140 ± 10 µM in the data set on Vero cells [7] and 104 ± 8 µM with MDCK cells. Moreover, the IC50 in data set [8] was 67 ± 8 µM.
In the case of `Cc1[nH]c(=O)[nH]c(=O)c1CCCCc1cn([C@@H]2O[C@H](CO)[C@@H](O)[C@H]2O)nn1` [Compound 11h], the half-inhibitory concentration (IC50) in the data set on Coxsackie B3 virus [6] is > 263 µM; in [8], 15 ± 3 µM. In addition, the SI is on record as 2 ^4 in the data set on Coxsackie B3 virus [6] and 5 in data set [8]. Further, the CC50 in the data set with Vero cells [7] is 525 ± 31 µM; in the data set with MDCK cells, 79 ± 6 µM.
For `CC(=O)OC[C@H]1O[C@@H](n2cc(CCCCc3c(C)[nH]c(=O)[nH]c3=O)nn2)[C@H](OC(C)=O)[C@@H]1OC(C)=O` [Compound 11i], in data set [8], the 50% inhibitory concentration (IC50) is > 592 µM, the SI is recorded as 1 ^4 and the “antiviral activity” value is listed as “did not demonstrate antiviral activity”. Moreover, in the data set with MDCK cells, the CC50 is > 592 µM.
Take `Cc1[nH]c(=O)[nH]c(=O)c1CCCCc1cn([C@@H]2O[C@H](CO)[C@@H](O)[C@H]2O)nn1` [Compound 11j]: in [8], the IC50 was > 787 µM, the SI is on record as 1 and the “antiviral activity” value was “did not demonstrate antiviral activity”. For the same compound, in the data set on MDCK cells, the CC50 is > 787 µM.

Broadly, the IC50 is the concentration at which inhibition is half-maximal.
